This note sets out measurements from patent publication US6486202B1, “Inhibitors of isoprenyl transferase” (Eisai Company, Limited, priority 2001, dated 2002).

Structures are written as SMILES.

The target in experiment [1] is FTase (Homo sapiens, UniProt P49354+P49356). The experiment in a line: FTase prenylation assay (partially purified FTase, recombinant H-ras, [3H] farnesyl pyrophosphate). The note with it: 3 μM recombinant H-ras, 440 nM [3H] FPP, 15 minutes at 37° C. It is filed as biochemical.
For experiment [2], the target named is GGTase (Homo sapiens, UniProt P49354+P53609). As to the kind of experiment: GGTase prenylation assay (partially purified GGTase, recombinant H-ras 61 L CAIL, [3H] geranylgeranyl diphosphate). It is filed as biochemical. To be noted: 5 μM recombinant H-ras (61 L, CAIL), 1 μM [3H] geranylgeranyl diphosphate.
Experiment [3] deals with H-ras farnesylation in H-ras (61 L) transformed NIH3T3 fibroblasts. The experiment in a line: Inhibition of H-ras farnesylation in whole cells (Western blot). It counts as cell-based. The note with it: treated 24 hours. How it is done: The ability of compounds of the invention to inhibit H-ras farnesylation and rapl geranylgeranylation in whole cells was determined. H-ras (61 L) transformed NIH3T3 fibroblasts were generously provided by C. Der, Univ. N. Carolina. These fibroblasts were treated for 24 hours with 50 μM lovastatin (control) or the indicated concentrations of inhibitor. The cells were lysed in 1% NP-40, 5mM Tris-HCl (pH 8.0), 5mM EDTA, 0.1mM N-tosyl-L-phenylalanine chloromethyl ketone, 0.1mM N-tosyl-L-lysine chloromethyl ketone, and 1 mM phenylmethylsulfonyl fluoride. The lysate was centrifuged (15000×g, 5 minutes.) and the supernatant was used as a cell extract. Total protein was separated by SDS-PAGE in 15% acrylamnide gel. After transfer to IMMOBILON P™ membrane (Millipore), the blots were probed with LA069 mouse monoclonal antibody to H-ras (Quality Biotech), or rabbit polyclonal antibody to rap1/Krev (Santa Cruz Biotechnology). All Western blots were developed using ECL chemiluminescent reagents (Amersham).

Experiment [4] has as its system anchorage-independent cell growth. As to the kind of experiment: Soft agar, anchorage-independent cell growth (Table 2). It counts as cell-based.
Experiment [5] has as its system MIA PaCa-2 cells. The experiment in a line: Anchorage-independent growth of tumor cells in culture, compound 10 and paclitaxel. It is filed as cell-based. To be noted: for number of colonies: 17 day incubation. As for the experimental part: 4×10^3MIA PaCa-2 cells (ATCC CRL1420) were seeded on 24-well culture plates in 0.2 mL of 0.33 Noble agar in 10% fetal calf serum/RPMI1640 medium over 0.4 mL of 0.66% Noble agar in the same culture medium. The top agar layer was overlayed with 0.2 mL of 0.66% Noble agar in culture medium. The upper agar was covered with 0.2 mL of culture medium containing the indicated concentration of paclitaxel and the indicated concentration of compound 10.
At the end of a 17 day incubation, 0.2 mL of 3.3 mg/mL 3-[4,5-dimethylthiazol-2-yl]-2,5-diphenyltetrazolium bromide in phosphate buffered saline was added and incubated for 1 hour. The number of stained colonies was analyzed with an image analyzer computer program.

For experiment [6], the system named is MIA PaCa-2 cells. As to the kind of experiment: In vivo tumor model, subcutaneous MIA PaCa-2 tumors in nude mice. Further details: species or system nude mice (BALB/c-nu/nu). How it is done: 5×10^6 MIA PaCa-2 cells in Hank's balanced salt solution were injected subcutaneously into the flanks of 6 to 8 week old female nude mice (BALB/c-nu/nu) at day 1. […] Compound 10 and paclitaxel were administered intravenously once a day for 5 days from day 6. Tumor volume was measured on the days indicated. Tumor volume was calculated according to the equation: tumor volume (mm^3)=(length×width^2)/2. The results are shown in FIG. 1, where the bars indicated standard deviation. The n value for the assays is 5.

[7] abbreviates: paclitaxel alone 6.25 mg/kg/day intravenously once a day for 5 days from day 6.

For `CSCCC(NC(=O)c1cc(CC=CC(N)CS)ccc1C)C(=O)O` (stereo not shown), the IC50 in experiment [1] amounted to 1 nM; in experiment [2] it was 2170 nM.

Regarding `CCc1ccc(CC=CC(N)CS)cc1C(=O)NC(CCSC)C(=O)O` (stereo not shown), the IC50 in experiment [1] worked out at 9 nM; in experiment [2] it was 420 nM.

As to `CSCCC(NC(=O)c1cc(CC=CC(N)CS)ccc1C(C)C)C(=O)O` (stereo not shown), the IC50 in experiment [1] was 23 nM; in experiment [2], 450 nM.

For the compound `CSCCC(NC(=O)c1cc(CCCC(N)CS)ccc1C(C)C)C(=O)O` (stereo not shown), the half-maximal inhibitory concentration (IC50) in experiment [1] amounted to 8 nM; in experiment [2], 680 nM.

In the case of `COC(=O)C(CCSC)NC(=O)c1cc(CC=CC(N)CS)ccc1C` (stereo not shown), the values for the IC50 in experiment [1] and in experiment [2] were 300 nM and 1600 nM, respectively.

`CCc1ccc(CC=CC(N)CS)cc1C(=O)NC(CCSC)C(=O)OC` (stereo not shown): the values for the IC50 in experiment [1] and in experiment [2] were 560 nM and 1840 nM, respectively.

Consider `COC(=O)C(CCSC)NC(=O)c1cc(CC=CC(N)CS)ccc1C(C)C` (stereo not shown), for which the IC50 in experiment [1] stood at 80 nM; in experiment [2], 3190 nM.

On to `COC(=O)C(CCSC)NC(=O)c1cc(CCCC(N)CS)ccc1C(C)C` (stereo not shown), for which the IC50 came to 73 nM in experiment [1] and 4440 nM in experiment [2].

For the compound `CSCCC(NC(=O)c1cc(CCCC(N)CS)ccc1C(C)C)C(=O)NCc1ccco1` (stereo not shown), the IC50 in experiment [1] is 67 nM; in experiment [2] it was 4430 nM.

Turning to `CSCC[C@H](NC(=O)c1cc(C/C=C/C(N)CS)ccc1C)C(=O)O` (stereo partly shown), the IC50 in experiment [3] came out at 4000 nM; in experiment [4], 9000 nM.

Regarding `CCc1ccc(C/C=C/C(N)CS)cc1C(=O)N[C@@H](CCSC)C(=O)O` (stereo partly shown), the values for the IC50 in experiment [3] and in experiment [4] were 360 nM and 950 nM, respectively.

Regarding `CSCC[C@H](NC(=O)c1cc(C/C=C/C(N)CS)ccc1C(C)C)C(=O)O` (stereo partly shown), the IC50 in experiment [3] amounted to 430 nM; in experiment [4] it was 160 nM.

As for `CSCC[C@H](NC(=O)c1cc(CCCC(N)CS)ccc1C(C)C)C(=O)O` (stereo partly shown), the IC50 in experiment [3] stood at 390 nM; in experiment [4], 150 nM.

As for `COC(=O)[C@H](CCSC)NC(=O)c1cc(C/C=C/C(N)CS)ccc1C` (stereo partly shown), the figures for the IC50 in experiment [3] and in experiment [4] were 120 nM and 75 nM, respectively.

As for `CCc1ccc(C/C=C/C(N)CS)cc1C(=O)N[C@@H](CCSC)C(=O)OC` (stereo partly shown), the IC50 in experiment [3] was determined as 56 nM; in experiment [4], 13 nM.

As for `COC(=O)[C@H](CCSC)NC(=O)c1cc(C/C=C/C(N)CS)ccc1C(C)C` (stereo partly shown), the results for the IC50 in experiment [3] and in experiment [4] were 22 nM and 11 nM, respectively.

Take `COC(=O)[C@H](CCSC)NC(=O)c1cc(CCCC(N)CS)ccc1C(C)C` (stereo partly shown): the 50% inhibitory concentration (IC50) in experiment [3] was found to be 28 nM; in experiment [4], 19 nM.

Take `CSCC[C@H](NC(=O)c1cc(CCCC(N)CS)ccc1C(C)C)C(=O)NCc1ccco1` (stereo partly shown): the IC50 worked out at 200 nM in experiment [3] and 300 nM in experiment [4].

`COC(=O)[C@H](CCSC)NC(=O)c1cc(CCC[C@@H](N)CS)ccc1C(C)C.Cl` [Compound 10]: the number of colonies in experiment [5] (compound 10 3.13 nM + paclitaxel 0.63 nM) came out at 255; in experiment [5] (compound 10 3.13 nM + paclitaxel 1.25 nM) it was 204; in experiment [5] (compound 10 3.13 nM + paclitaxel 2.5 nM), 64; in experiment [5] (compound 10 3.13 nM + paclitaxel 5 nM) it was 8; in experiment [5] (compound 10 3.13 nM, paclitaxel 0 nM), 271; in experiment [5] (compound 10 6.25 nM + paclitaxel 0.63 nM), 214. Besides, the number of colonies in experiment [5] (compound 10 6.25 nM + paclitaxel 1.25 nM) is 168; in experiment [5] (compound 10 6.25 nM + paclitaxel 2.5 nM) it was 36; in experiment [5] (compound 10 6.25 nM + paclitaxel 5 nM) it was 4; in experiment [5] (compound 10 6.25 nM, paclitaxel 0 nM), 210; in experiment [5] (compound 10 12.5 nM + paclitaxel 0.63 nM) it was 203; in experiment [5] (compound 10 12.5 nM + paclitaxel 1.25 nM) it was 148. For the same compound, the number of colonies is recorded as 22 in experiment [5] (compound 10 12.5 nM + paclitaxel 2.5 nM); 1 in experiment [5] (compound 10 12.5 nM + paclitaxel 5 nM); 189 in experiment [5] (compound 10 12.5 nM, paclitaxel 0 nM); 173 in experiment [5] (compound 10 25 nM + paclitaxel 0.63 nM); 124 in experiment [5] (compound 10 25 nM + paclitaxel 1.25 nM); 16 in experiment [5] (compound 10 25 nM + paclitaxel 2.5 nM). For the same compound, the number of colonies was 1 in experiment [5] (compound 10 25 nM + paclitaxel 5 nM); 161 in experiment [5] (compound 10 25 nM, paclitaxel 0 nM); 119 in experiment [5] (compound 10 50 nM + paclitaxel 0.63 nM); 74 in experiment [5] (compound 10 50 nM + paclitaxel 1.25 nM); 0 in experiment [5] (compound 10 50 nM + paclitaxel 2.5 nM); 0 in experiment [5] (compound 10 50 nM + paclitaxel 5 nM). Also, the number of colonies turned out to be 97 in experiment [5] (compound 10 50 nM, paclitaxel 0 nM); 72 in experiment [5] (compound 10 100 nM + paclitaxel 0.63 nM); 26 in experiment [5] (compound 10 100 nM + paclitaxel 1.25 nM); 0 in experiment [5] (compound 10 100 nM + paclitaxel 2.5 nM); 0 in experiment [5] (compound 10 100 nM + paclitaxel 5 nM); 64 in experiment [5] (compound 10 100 nM, paclitaxel 0 nM). For the same compound, the number of colonies in experiment [5] (compound 10 200 nM + paclitaxel 0.63 nM) is recorded as 30; in experiment [5] (compound 10 200 nM + paclitaxel 1.25 nM), 11; in experiment [5] (compound 10 200 nM + paclitaxel 2.5 nM), 0; in experiment [5] (compound 10 200 nM + paclitaxel 5 nM), 0; in experiment [5] (compound 10 200 nM, paclitaxel 0 nM) it was 23; in experiment [5] (compound 10 400 nM + paclitaxel 0.63 nM) it was 6. Further, the number of colonies is given as 1 in experiment [5] (compound 10 400 nM + paclitaxel 1.25 nM); 0 in experiment [5] (compound 10 400 nM + paclitaxel 2.5 nM); 0 in experiment [5] (compound 10 400 nM + paclitaxel 5 nM); 3 in experiment [5] (compound 10 400 nM, paclitaxel 0 nM). Moreover, the interaction with paclitaxel result in experiment [5] (compound 10 at 3.13 to 200 nM with paclitaxel 2.5 to 5 nM) is on record as “synergistic”; in experiment [5] (compound 10 at 100 to 200 nM with 1.25 nM paclitaxel) it was “synergistically tumoricidal”. Besides, the tumor regression result in experiment [6] (compound 10 25 mg/kg/day plus paclitaxel 6.25 mg/kg/day intravenously once a day for 5 days from day 6, by 20 days after tumor cell implantation) is given as “all tumors in all mice had completely regressed”.

Take `CC(=O)O[C@H]1C(=O)[C@@]2(C)[C@H]([C@H](OC(=O)c3ccccc3)[C@]3(O)C[C@H](OC(=O)[C@H](O)[C@@H](NC(=O)c4ccccc4)c4ccccc4)C(C)=C1C3(C)C)[C@]1(OC(C)=O)CO[C@@H]1C[C@@H]2O` [Paclitaxel, paclitaxel, reference compound]: the number of colonies in experiment [5] (paclitaxel 0.63 nM, compound 10 0 nM) is on record as 235; in experiment [5] (paclitaxel 1.25 nM, compound 10 0 nM) it was 234; in experiment [5] (paclitaxel 2.5 nM, compound 10 0 nM), 172; in experiment [5] (paclitaxel 5 nM, compound 10 0 nM), 48. In addition, the tumor growth entry in experiment [6] (setting [7]) was “inhibited tumor growth”. Further, the tumor regression entry in experiment [6] (setting [7]) is “no tumor regression ever occurred”.
